Drawing on US20230391768A2, “IMIDAZOPYRIDINE DERIVATIVES AND AZA-IMIDAZOPYRIDINE DERIVATIVES AS JANUS KINASE 2 INHIBITORS AND USES THEREOF” (Dana-Farber Cancer Institute, Inc., priority 2018, published 2023), this text covers remaining binding for two compounds.

Test in all cases: KINOMEscan
What all share (type): binding
Details in all cases: read-out: percent of control

In assay [1] the target is DCAMKL3 (Homo sapiens (Human), UniProt Q9C098). As for the experimental part:
(§1) In vitro profiling of Compound I-2 (1 μM) was performed using the DiscoveRx KINOMEscan® platform.

For assay [2], the target named is MYLK4 (Homo sapiens (Human), UniProt Q86YV6). As for the experimental part: as §1
Sequence of MYLK4 (Q86YV6 whole entry): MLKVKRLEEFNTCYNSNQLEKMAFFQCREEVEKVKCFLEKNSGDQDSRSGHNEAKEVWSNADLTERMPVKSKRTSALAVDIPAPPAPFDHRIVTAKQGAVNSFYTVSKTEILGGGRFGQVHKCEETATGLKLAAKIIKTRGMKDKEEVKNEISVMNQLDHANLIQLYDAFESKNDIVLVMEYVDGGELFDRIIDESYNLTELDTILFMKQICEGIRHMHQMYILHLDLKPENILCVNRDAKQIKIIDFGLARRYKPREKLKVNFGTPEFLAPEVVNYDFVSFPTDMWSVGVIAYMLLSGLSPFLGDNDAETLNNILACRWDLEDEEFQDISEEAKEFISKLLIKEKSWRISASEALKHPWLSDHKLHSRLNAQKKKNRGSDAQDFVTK
Assay [3] deals with ADCK4 (Homo sapiens (Human), UniProt Q96D53). As for the experimental part: as §1
Sequence of ADCK4 (Q96D53 whole entry): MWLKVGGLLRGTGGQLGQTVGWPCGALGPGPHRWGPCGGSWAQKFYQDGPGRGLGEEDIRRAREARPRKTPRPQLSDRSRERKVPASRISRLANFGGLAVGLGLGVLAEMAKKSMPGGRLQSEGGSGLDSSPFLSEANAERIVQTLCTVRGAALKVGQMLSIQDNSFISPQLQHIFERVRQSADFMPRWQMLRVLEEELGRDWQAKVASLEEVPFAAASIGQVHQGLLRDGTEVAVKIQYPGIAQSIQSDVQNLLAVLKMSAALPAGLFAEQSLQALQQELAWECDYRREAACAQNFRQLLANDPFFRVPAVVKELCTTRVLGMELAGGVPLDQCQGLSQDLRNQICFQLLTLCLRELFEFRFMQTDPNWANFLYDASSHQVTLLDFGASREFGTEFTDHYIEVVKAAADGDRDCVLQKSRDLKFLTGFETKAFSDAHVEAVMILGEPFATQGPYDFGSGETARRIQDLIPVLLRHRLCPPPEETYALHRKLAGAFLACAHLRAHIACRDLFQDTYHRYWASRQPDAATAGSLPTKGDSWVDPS
Assay [4] concerns the target PRKG2 (Homo sapiens (Human), UniProt Q13237). The method, then: as §1
Assay [5] concerns the target PRKR (Homo sapiens (Human), UniProt P19525). As for the experimental part: as §1
For assay [6], the target named is DYRKIA (Homo sapiens (Human), UniProt Q13627). The method, then:
as §1

In assay [7] the target is PIK3C2G (Homo sapiens (Human), UniProt O75747). As for the experimental part: as §1
Sequence of PIK3C2G (O75747 whole entry): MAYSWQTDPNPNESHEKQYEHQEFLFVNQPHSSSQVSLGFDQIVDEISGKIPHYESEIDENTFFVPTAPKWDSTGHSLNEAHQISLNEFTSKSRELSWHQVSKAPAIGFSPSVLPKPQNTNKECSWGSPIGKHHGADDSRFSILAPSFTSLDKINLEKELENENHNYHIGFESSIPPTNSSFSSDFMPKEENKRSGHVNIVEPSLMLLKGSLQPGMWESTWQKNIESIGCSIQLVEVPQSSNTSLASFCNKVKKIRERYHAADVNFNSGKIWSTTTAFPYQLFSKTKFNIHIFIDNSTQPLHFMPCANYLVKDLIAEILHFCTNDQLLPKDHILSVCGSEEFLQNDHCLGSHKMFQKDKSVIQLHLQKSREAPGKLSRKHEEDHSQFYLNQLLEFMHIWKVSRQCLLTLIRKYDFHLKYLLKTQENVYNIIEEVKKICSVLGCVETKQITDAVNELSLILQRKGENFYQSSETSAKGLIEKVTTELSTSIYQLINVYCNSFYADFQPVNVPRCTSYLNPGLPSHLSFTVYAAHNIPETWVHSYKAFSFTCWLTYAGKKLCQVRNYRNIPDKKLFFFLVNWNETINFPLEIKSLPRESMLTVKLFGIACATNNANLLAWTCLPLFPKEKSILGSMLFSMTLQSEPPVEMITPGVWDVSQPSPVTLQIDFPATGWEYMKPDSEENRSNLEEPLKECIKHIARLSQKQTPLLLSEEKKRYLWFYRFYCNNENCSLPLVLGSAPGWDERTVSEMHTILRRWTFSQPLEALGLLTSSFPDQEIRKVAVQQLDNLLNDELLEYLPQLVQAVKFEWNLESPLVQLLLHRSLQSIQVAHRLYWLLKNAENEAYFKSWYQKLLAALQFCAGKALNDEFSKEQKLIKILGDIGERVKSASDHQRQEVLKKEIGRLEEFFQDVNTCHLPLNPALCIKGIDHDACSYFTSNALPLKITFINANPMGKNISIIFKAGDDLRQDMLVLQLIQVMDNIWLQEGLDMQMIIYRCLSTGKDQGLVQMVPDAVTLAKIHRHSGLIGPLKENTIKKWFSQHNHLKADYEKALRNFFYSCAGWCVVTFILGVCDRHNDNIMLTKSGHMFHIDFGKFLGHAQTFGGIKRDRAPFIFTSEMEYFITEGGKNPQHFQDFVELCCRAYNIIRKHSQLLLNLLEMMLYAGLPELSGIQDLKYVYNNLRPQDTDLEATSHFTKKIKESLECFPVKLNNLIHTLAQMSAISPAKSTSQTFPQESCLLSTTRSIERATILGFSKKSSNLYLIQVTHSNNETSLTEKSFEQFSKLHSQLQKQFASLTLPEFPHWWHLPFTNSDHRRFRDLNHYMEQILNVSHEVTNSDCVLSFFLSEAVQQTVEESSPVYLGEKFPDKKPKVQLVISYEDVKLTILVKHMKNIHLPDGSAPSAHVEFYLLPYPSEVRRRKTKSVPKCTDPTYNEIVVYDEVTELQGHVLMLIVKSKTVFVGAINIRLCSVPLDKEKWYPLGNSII
For assay [8], the target named is BUB1 (Homo sapiens (Human), UniProt O43683). The method, then:
as §1

Sequence of DCAMKL3 (Q9C098 whole entry, looked up): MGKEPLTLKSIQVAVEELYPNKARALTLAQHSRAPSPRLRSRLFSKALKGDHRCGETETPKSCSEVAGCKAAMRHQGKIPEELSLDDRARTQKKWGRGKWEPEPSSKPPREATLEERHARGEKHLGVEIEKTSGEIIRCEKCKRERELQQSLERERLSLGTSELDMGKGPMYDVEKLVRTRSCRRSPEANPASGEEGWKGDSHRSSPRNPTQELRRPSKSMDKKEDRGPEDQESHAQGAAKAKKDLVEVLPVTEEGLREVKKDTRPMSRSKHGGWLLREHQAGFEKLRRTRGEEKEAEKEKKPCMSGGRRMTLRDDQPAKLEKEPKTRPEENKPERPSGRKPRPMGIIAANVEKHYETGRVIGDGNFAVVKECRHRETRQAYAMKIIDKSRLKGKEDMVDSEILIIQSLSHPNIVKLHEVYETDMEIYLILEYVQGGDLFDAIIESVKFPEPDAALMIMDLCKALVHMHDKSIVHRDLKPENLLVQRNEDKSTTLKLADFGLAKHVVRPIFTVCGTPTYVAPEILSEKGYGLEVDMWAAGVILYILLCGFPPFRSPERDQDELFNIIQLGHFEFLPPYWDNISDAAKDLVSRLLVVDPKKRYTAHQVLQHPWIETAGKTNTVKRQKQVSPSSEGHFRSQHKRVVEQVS
Sequence of PRKR (P19525 whole entry): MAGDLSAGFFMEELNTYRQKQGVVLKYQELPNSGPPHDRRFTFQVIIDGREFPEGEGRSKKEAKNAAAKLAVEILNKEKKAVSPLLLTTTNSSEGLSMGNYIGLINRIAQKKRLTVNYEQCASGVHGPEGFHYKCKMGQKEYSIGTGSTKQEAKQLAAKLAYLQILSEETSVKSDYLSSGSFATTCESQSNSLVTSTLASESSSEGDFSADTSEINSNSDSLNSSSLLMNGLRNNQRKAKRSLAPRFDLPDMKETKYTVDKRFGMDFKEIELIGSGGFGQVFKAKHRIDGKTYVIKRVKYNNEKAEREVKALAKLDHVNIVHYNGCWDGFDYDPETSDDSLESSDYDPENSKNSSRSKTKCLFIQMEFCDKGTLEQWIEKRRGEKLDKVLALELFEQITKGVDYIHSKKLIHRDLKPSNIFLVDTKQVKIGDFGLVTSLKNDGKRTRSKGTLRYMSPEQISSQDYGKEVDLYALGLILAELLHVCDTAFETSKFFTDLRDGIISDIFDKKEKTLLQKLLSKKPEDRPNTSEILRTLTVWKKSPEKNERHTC
Sequence of BUB1 (O43683 whole entry): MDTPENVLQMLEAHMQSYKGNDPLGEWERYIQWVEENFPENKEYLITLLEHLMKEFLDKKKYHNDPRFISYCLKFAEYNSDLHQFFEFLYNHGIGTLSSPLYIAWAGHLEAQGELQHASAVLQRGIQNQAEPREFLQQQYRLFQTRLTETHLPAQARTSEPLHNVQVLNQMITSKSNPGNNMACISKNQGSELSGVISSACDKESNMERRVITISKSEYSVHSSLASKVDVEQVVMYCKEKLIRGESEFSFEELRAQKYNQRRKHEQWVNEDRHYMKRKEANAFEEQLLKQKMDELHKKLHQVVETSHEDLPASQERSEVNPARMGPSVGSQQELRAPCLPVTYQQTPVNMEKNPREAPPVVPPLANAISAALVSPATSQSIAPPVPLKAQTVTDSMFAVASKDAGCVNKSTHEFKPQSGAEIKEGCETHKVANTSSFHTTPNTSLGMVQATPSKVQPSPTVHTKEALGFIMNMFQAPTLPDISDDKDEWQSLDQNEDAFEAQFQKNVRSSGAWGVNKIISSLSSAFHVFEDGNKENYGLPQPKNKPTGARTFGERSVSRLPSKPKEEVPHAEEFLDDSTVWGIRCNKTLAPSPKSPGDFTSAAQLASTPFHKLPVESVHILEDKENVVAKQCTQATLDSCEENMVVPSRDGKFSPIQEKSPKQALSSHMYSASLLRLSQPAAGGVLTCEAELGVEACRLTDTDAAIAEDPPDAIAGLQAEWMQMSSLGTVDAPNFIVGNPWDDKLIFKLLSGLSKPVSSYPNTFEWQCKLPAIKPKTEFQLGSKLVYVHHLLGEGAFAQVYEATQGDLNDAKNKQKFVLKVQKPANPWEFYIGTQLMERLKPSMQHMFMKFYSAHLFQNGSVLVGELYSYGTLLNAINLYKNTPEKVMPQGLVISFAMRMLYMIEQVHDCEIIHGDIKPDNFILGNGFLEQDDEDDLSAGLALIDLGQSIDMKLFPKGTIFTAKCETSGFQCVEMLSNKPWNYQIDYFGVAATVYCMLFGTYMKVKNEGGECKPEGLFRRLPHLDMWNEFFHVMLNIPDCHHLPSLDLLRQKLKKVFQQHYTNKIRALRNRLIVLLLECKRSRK

Regarding `CCN1CCN(Cc2cc(NC(=O)c3ccc(C)c(-c4ccc5nc(NC(=O)C6CC6)cn5n4)c3)cc(C(F)(F)F)c2)CC1` [Compound I-2, 3-(2-(cyclopropanecarboxamido)imidazo[1,2-b]pyridazin-6-yl)-N-(3-((4-ethylpiperazin-1-yl)methyl)-5-(trifluoromethyl)phenyl)-4-methylbenzamide], the remaining binding at 1 µM in assay [1] came to 91%; in assay [2] it was 96%; in assay [3], 75%; in assay [4], 100%; in assay [5], 97%; in assay [6] it was 92%. Moreover, the remaining binding at 1 µM worked out at 92% in assay [7] and 100% in assay [8].
As to `CCN1CCN(Cc2cc(NC(=O)c3ccc(C)c(-c4ccc5nc(NC(=O)C6CC6)cn5c4)c3)cc(C(F)(F)F)c2)CC1` [Compound I-6, 3-(2-(cyclopropanecarboxamido)imidazo[1,2-a]pyridin-6-yl)-N-(3-((4-ethylpiperazin-1-yl)methyl)-5-(trifluoromethyl)phenyl)-4-methylbenzamide], the remaining binding at 1 µM turned out to be 96% in assay [1]; 100% in assay [2]; 91% in assay [3]; 99% in assay [4]; 95% in assay [5]; 100% in assay [6]. In addition, the values for the remaining binding at 1 µM in assay [7] and in assay [8] were 95% and 97%, respectively.
